Among the data in the supplement of paper PMC11061612 are Bliss excess values, retold here.

The test system of test [1] is IM-95 (Gastric Carcinoma). The test can be described thus: Bliss excess, mean over the matrix (fraction); higher = more synergy. The gist of the method: (§1)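 Cell lines grown in DMEM/F12 or RPMI with 10% FBS were plated in 1536-well plates and held 24 hours at 37°C, 5% CO2 before 72 hours of exposure to two-drug dose matrices, with DMSO typically at 0.2%. CellTiter-Glo 2.0 luminescence gave viability, which was converted to inhibition. Vehicle wells were set to 0 and blank wells to 1. Combination Emax is the second-highest inhibition in the matrix, and Bliss excess is the observed combination effect minus the expected EA + EB − EA·EB, where EA and EB are the single-agent effects.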

Test [2] has as its system SK-GT-2 (Gastric Carcinoma). The test is described as above. In outline:
as §1

Molecules are shown by their SMILES.

Consider `CN(C)CCCOc1ccc(-c2ccc3ncc4c(c3c2)n(C2CCOCC2)c(=O)n4C)cn1` [AZD0156] + C=CCn1c(=O)c2cnc(Nc3ccc(N4CCN(C)CC4)cc3)nc2n1-c1cccc(C(C)(C)O)n1 [AZD1775] (first compound max 1 µM, partner max 1 µM), for which the Bliss excess in test [1] is -0.0366; in test [2], -0.0776. For `CN(C)CCCOc1ccc(-c2ccc3ncc4c(c3c2)n(C2CCOCC2)c(=O)n4C)cn1` [AZD0156] + CCN(CCO)CCCOc1ccc2c(Nc3cc(CC(=O)Nc4cccc(F)c4)[nH]n3)ncnc2c1 [AZD2811] (first compound max 1 µM, 7x7, partner max 1 µM), the figures for the Bliss excess in test [1] and in test [2] were 0.0925 and -0.0156, respectively.

Take `CN(C)CCCOc1ccc(-c2ccc3ncc4c(c3c2)n(C2CCOCC2)c(=O)n4C)cn1` [AZD0156] + C[C@@H]1COCCN1C2=NC(=NC(=C2)C3(CC3)[S@](=N)(=O)C)C4=C5C=CNC5=NC=C4 [AZD6738] (first compound max 1 µM, 7x7, partner max 10 µM): the values for the Bliss excess in test [1] and in test [2] were -0.0126 and 0.0033, respectively. As to `C=CCn1c(=O)c2cnc(Nc3ccc(N4CCN(C)CC4)cc3)nc2n1-c1cccc(C(C)(C)O)n1` [AZD1775] + C[C@@H]1COCCN1C2=NC(=NC(=C2)C3(CC3)[S@](=N)(=O)C)C4=C5C=CNC5=NC=C4 [AZD6738] (first compound max 1 µM, partner max 10 µM), the Bliss excess in test [1] is 0.0804; in test [2], -0.0189. On the same counts, the results for `C=CCn1c(=O)c2cnc(Nc3ccc(N4CCN(C)CC4)cc3)nc2n1-c1cccc(C(C)(C)O)n1` [AZD1775] + O=C(c1cc(Cc2n[nH]c(=O)c3ccccc23)ccc1F)N1CCN(C(=O)C2CC2)CC1 [Olaparib] (first compound max 1 µM, partner max 10 µM) are -0.0047 and -0.0139.

As for `CCN(CCO)CCCOc1ccc2c(Nc3cc(CC(=O)Nc4cccc(F)c4)[nH]n3)ncnc2c1` [AZD2811] + C=CCn1c(=O)c2cnc(Nc3ccc(N4CCN(C)CC4)cc3)nc2n1-c1cccc(C(C)(C)O)n1 [AZD1775] (first compound max 1 µM, partner max 1 µM), the Bliss excess in test [1] was found to be 0.0486; in test [2] it was 0.0008. On the same counts, the results for `CCN(CCO)CCCOc1ccc2c(Nc3cc(CC(=O)Nc4cccc(F)c4)[nH]n3)ncnc2c1` [AZD2811] + C[C@@H]1COCCN1C2=NC(=NC(=C2)C3(CC3)[S@](=N)(=O)C)C4=C5C=CNC5=NC=C4 [AZD6738] (first compound max 1 µM, 7x7, partner max 10 µM) are 0.0291 and -0.0272. Consider `CCN(CCO)CCCOc1ccc2c(Nc3cc(CC(=O)Nc4cccc(F)c4)[nH]n3)ncnc2c1` [AZD2811] + O=C(c1cc(Cc2n[nH]c(=O)c3ccccc23)ccc1F)N1CCN(C(=O)C2CC2)CC1 [Olaparib] (first compound max 1 µM, 7x7, partner max 10 µM), for which the figures for the Bliss excess in test [1] and in test [2] were 0.0087 and 0.0218, respectively.

Take `CN(CCO)CC[C@H](CSc1ccccc1)Nc1ccc(S(=O)(=O)NC(=O)c2ccc(N3CCC([C@@H](O)c4ccccc4-c4ccc(Cl)cc4)CC3)cc2)cc1S(=O)(=O)C(F)(F)F` [AZD4320] + C1CN(CCC1(C(=O)N[C@@H](CCO)C2=CC=C(C=C2)Cl)N)C3=NC=NC4=C3C=CN4 [Capivasertib] (first compound max 1 µM, 7x7, partner max 3 µM): the values for the Bliss excess in test [1] and in test [2] were -0.0545 and -0.0158, respectively. In the case of `CN(CCO)CC[C@H](CSc1ccccc1)Nc1ccc(S(=O)(=O)NC(=O)c2ccc(N3CCC([C@@H](O)c4ccccc4-c4ccc(Cl)cc4)CC3)cc2)cc1S(=O)(=O)C(F)(F)F` [AZD4320] + C=CCn1c(=O)c2cnc(Nc3ccc(N4CCN(C)CC4)cc3)nc2n1-c1cccc(C(C)(C)O)n1 [AZD1775] (first compound max 1 µM, partner max 1 µM), the Bliss excess in test [1] is -0.0023; in test [2] it was 0.0322. In the case of `CN(CCO)CC[C@H](CSc1ccccc1)Nc1ccc(S(=O)(=O)NC(=O)c2ccc(N3CCC([C@@H](O)c4ccccc4-c4ccc(Cl)cc4)CC3)cc2)cc1S(=O)(=O)C(F)(F)F` [AZD4320] + CCN(CCO)CCCOc1ccc2c(Nc3cc(CC(=O)Nc4cccc(F)c4)[nH]n3)ncnc2c1 [AZD2811] (first compound max 1 µM, 7x7, partner max 1 µM), the Bliss excess in test [1] came out at 0.134; in test [2], 0.026. For the compound `CN(CCO)CC[C@H](CSc1ccccc1)Nc1ccc(S(=O)(=O)NC(=O)c2ccc(N3CCC([C@@H](O)c4ccccc4-c4ccc(Cl)cc4)CC3)cc2)cc1S(=O)(=O)C(F)(F)F` [AZD4320] + CN(C)CCCOc1ccc(-c2ccc3ncc4c(c3c2)n(C2CCOCC2)c(=O)n4C)cn1 [AZD0156] (first compound max 1 µM, 7x7, partner max 1 µM), the Bliss excess in test [1] was -0.0683; in test [2], 0.0006. As to `CN(CCO)CC[C@H](CSc1ccccc1)Nc1ccc(S(=O)(=O)NC(=O)c2ccc(N3CCC([C@@H](O)c4ccccc4-c4ccc(Cl)cc4)CC3)cc2)cc1S(=O)(=O)C(F)(F)F` [AZD4320] + C[C@@H]1COCCN1C2=NC(=NC(=C2)C3(CC3)[S@](=N)(=O)C)C4=C5C=CNC5=NC=C4 [AZD6738] (first compound max 1 µM, 7x7, partner max 10 µM), the Bliss excess in test [1] is -0.021; in test [2], 0.0109. In the case of `CN(CCO)CC[C@H](CSc1ccccc1)Nc1ccc(S(=O)(=O)NC(=O)c2ccc(N3CCC([C@@H](O)c4ccccc4-c4ccc(Cl)cc4)CC3)cc2)cc1S(=O)(=O)C(F)(F)F` [AZD4320] + C[C@@H](Nc1cc(F)cc(F)c1)c1cc(C(=O)N(C)C)cc2c(=O)cc(N3CCOCC3)oc12 [AZD8186] (first compound max 1 µM, 7x7, partner max 3 µM), the Bliss excess came out at 0.0117 in test [1] and 0.0296 in test [2]. In the case of `CN(CCO)CC[C@H](CSc1ccccc1)Nc1ccc(S(=O)(=O)NC(=O)c2ccc(N3CCC([C@@H](O)c4ccccc4-c4ccc(Cl)cc4)CC3)cc2)cc1S(=O)(=O)C(F)(F)F` [AZD4320] + Cc1cc2ncnn2cc1Nc1ncc2c(n1)n(C1CCOCC1)c(=O)n2C [AZD7648] (first compound max 1 µM, 7x7, partner max 10 µM), the Bliss excess in test [1] was -0.0645; in test [2], -0.0034.

For the compound `CN(CCO)CC[C@H](CSc1ccccc1)Nc1ccc(S(=O)(=O)NC(=O)c2ccc(N3CCC([C@@H](O)c4ccccc4-c4ccc(Cl)cc4)CC3)cc2)cc1S(=O)(=O)C(F)(F)F` [AZD4320] + Cn1cnc2c(F)c(Nc3ccc(Br)cc3Cl)c(C(=O)NOCCO)cc21 [Selumetinib] (first compound max 1 µM, 7x7, partner max 3 µM), the figures for the Bliss excess in test [1] and in test [2] were 0.0132 and 0.0177, respectively. As for `Cc1c2c(nn1C)CSCc1cc(n(C)n1)CSc1cc(c3ccccc3c1)OCCCc1c(C(=O)O)n(C)c3c-2c(Cl)ccc13` [AZD5991] + C1CN(CCC1(C(=O)N[C@@H](CCO)C2=CC=C(C=C2)Cl)N)C3=NC=NC4=C3C=CN4 [Capivasertib] (first compound max 1 µM, 7x7, partner max 3 µM), the Bliss excess in test [1] was -0.0384; in test [2], -0.0049.

On to `Cc1c2c(nn1C)CSCc1cc(n(C)n1)CSc1cc(c3ccccc3c1)OCCCc1c(C(=O)O)n(C)c3c-2c(Cl)ccc13` [AZD5991] + C=CCn1c(=O)c2cnc(Nc3ccc(N4CCN(C)CC4)cc3)nc2n1-c1cccc(C(C)(C)O)n1 [AZD1775] (first compound max 1 µM, partner max 1 µM), for which the Bliss excess in test [1] is 0.0201; in test [2] it was -0.0033. As for `Cc1c2c(nn1C)CSCc1cc(n(C)n1)CSc1cc(c3ccccc3c1)OCCCc1c(C(=O)O)n(C)c3c-2c(Cl)ccc13` [AZD5991] + CC1(C)CCC(CN2CCN(c3ccc(C(=O)NS(=O)(=O)c4ccc(NCC5CCOCC5)c([N+](=O)[O-])c4)c(Oc4cnc5[nH]ccc5c4)c3)CC2)=C(c2ccc(Cl)cc2)C1 [Venetoclax] (first compound max 1 µM, 7x7, partner max 1 µM), the results for the Bliss excess in test [1] and in test [2] were 0.0119 and -0.0035, respectively.

Take `Cc1c2c(nn1C)CSCc1cc(n(C)n1)CSc1cc(c3ccccc3c1)OCCCc1c(C(=O)O)n(C)c3c-2c(Cl)ccc13` [AZD5991] + CCN(CCO)CCCOc1ccc2c(Nc3cc(CC(=O)Nc4cccc(F)c4)[nH]n3)ncnc2c1 [AZD2811] (first compound max 1 µM, 7x7, partner max 1 µM): the Bliss excess in test [1] stood at 0.0605; in test [2], 0.039. For `Cc1c2c(nn1C)CSCc1cc(n(C)n1)CSc1cc(c3ccccc3c1)OCCCc1c(C(=O)O)n(C)c3c-2c(Cl)ccc13` [AZD5991] + CN(C)CCCOc1ccc(-c2ccc3ncc4c(c3c2)n(C2CCOCC2)c(=O)n4C)cn1 [AZD0156] (first compound max 1 µM, 7x7, partner max 1 µM) the same measures were -0.0198 and 0.0228.

As to `Cc1c2c(nn1C)CSCc1cc(n(C)n1)CSc1cc(c3ccccc3c1)OCCCc1c(C(=O)O)n(C)c3c-2c(Cl)ccc13` [AZD5991] + C[C@@H]1COCCN1C2=NC(=NC(=C2)C3(CC3)[S@](=N)(=O)C)C4=C5C=CNC5=NC=C4 [AZD6738] (first compound max 1 µM, 7x7, partner max 10 µM), the Bliss excess in test [1] is -0.0412; in test [2], 0.026. Turning to `Cc1c2c(nn1C)CSCc1cc(n(C)n1)CSc1cc(c3ccccc3c1)OCCCc1c(C(=O)O)n(C)c3c-2c(Cl)ccc13` [AZD5991] + C[C@@H](Nc1cc(F)cc(F)c1)c1cc(C(=O)N(C)C)cc2c(=O)cc(N3CCOCC3)oc12 [AZD8186] (first compound max 1 µM, 7x7, partner max 3 µM), the Bliss excess in test [1] is -0.0348; in test [2], 0.015.

For `CCc1c2c(nc3ccc(O)cc13)-c1cc3c(c(=O)n1C2)COC(=O)[C@]3(O)CC` [SN-38] + O=C(c1cc(Cc2n[nH]c(=O)c3ccccc23)ccc1F)N1CCN(C(=O)C2CC2)CC1 [Olaparib] (first compound max 0.3 µM, 7x7, partner max 10 µM), in test [1], the Bliss excess was determined as 0.036.
